Reference: ChEMBL document CHEMBL4834409 (J Med Chem, 2021)
The source made the active and inactive calls. The calls are words filed in the database; no cut-off is given here.

Legend:
[1] = molecular target: T1, Melatonin receptor type 1B (Homo sapiens) (UniProt P49286); assay: Displacement of 2-[125l]-lodomelatonin from human MT2 expressed in CHO cell membrane at 100 nM incubated for 150 mins by radioligand binding assay relative to control; assay type: cell membranes
T1 sequence (whole entry): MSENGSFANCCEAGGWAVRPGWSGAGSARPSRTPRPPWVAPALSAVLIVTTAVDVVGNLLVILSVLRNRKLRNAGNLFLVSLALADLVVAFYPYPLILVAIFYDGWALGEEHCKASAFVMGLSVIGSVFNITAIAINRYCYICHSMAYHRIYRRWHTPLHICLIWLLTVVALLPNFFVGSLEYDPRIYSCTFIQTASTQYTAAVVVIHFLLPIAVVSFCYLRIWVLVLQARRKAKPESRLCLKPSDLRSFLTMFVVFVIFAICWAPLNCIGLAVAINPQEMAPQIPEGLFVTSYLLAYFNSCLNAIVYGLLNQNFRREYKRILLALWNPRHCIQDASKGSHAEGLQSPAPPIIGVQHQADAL

[2] = molecular target: T2, Melatonin receptor type 1A (Homo sapiens, UniProt P48039); assay: Displacement of 2-[125l]-lodomelatonin from human MT1 expressed in CHO cell membrane at 100 nM incubated for 150 mins by radioligand binding assay relative to control; assay type: cell membranes
T2 sequence (P48039 whole entry): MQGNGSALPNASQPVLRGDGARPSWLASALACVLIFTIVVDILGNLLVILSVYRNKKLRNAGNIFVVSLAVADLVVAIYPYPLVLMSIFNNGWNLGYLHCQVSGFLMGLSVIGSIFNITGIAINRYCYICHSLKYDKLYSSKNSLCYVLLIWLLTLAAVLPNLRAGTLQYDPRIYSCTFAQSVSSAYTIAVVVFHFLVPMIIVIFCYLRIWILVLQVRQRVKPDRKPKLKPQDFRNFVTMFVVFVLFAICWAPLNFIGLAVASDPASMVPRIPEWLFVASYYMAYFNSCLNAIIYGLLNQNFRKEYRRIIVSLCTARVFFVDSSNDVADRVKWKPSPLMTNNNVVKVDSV

[3] = Clearance in human hepatic microsomes at 1 umol/L incubated for 20 mins in presence of NADPH generating system by HPLC-UV analysis; assay type: ADME, Microsome; conditions: liver microsomes, dose 1 µmol/L, read-out: CLH
[4] = molecular target: T2, Melatonin receptor type 1A; assay: Displacement of 2-[125l]-lodomelatonin from human MT1 expressed in CHO cell membrane incubated for 150 mins by radioligand binding assay; assay type: cell membranes
[5] = Clearance in rat hepatic microsomes at 1 umol/L incubated for 20 mins in presence of NADPH generating system by HPLC-UV analysis; assay type: ADME, Microsome; conditions: liver microsomes, dose 1 µmol/L, read-out: CLH
[6] = molecular target: T3, Melatonin receptor type 1B (Homo sapiens, UniProt P49286); assay: Displacement of 2-[125l]-lodomelatonin from human MT2 expressed in CHO cell membrane incubated for 150 mins by radioligand binding assay; assay type: cell membranes
T3 sequence (P49286 whole entry): T1 sequence (whole entry)

[7] = Oral bioavailability in Sprague-Dawley rat at 1 mg/kg administered as casette dosing by LC/MS/MS analysis; assay type: ADME, organism-based; conditions: in vivo
[8] = Ratio of drug concentration in brain to plasma in Sprague-Dawley rat at 0.1 mg/kg, po after 60 mins by LC/MS/MS analysis; assay type: ADME, organism-based; conditions: read-out: BPR
[9] = Drug concentration in Sprague-Dawley rat brain at 0.1 mg/kg, po after 60 mins by LC/MS/MS analysis; assay type: ADME, organism-based; conditions: read-out: Ct
Felis catus = assay: Hypnotic activity in cats assessed as increase in total sleep time at 10 mg/kg, po after 8 hrs by EEG analysis; assay type: functional, organism-based
[10] = molecular target: T3, Melatonin receptor type 1B; assay: Agonist activity at human MT2 expressed in CHO-K1 cells assessed as inhibition of forskolin-induced cAMP accumulation incubated for 30 mins by AlphaScreen assay; assay type: functional, cell-based
[11] = Drug concentration in Sprague-Dawley rat plasma at 0.1 mg/kg, po after 60 mins by LC/MS/MS analysis; assay type: ADME, organism-based
[12] = molecular target: T2, Melatonin receptor type 1A; assay: Agonist activity at human MT1 expressed in CHO-K1 cells assessed as inhibition of forskolin-induced cAMP accumulation incubated for 30 mins by AlphaScreen assay; assay type: functional, cell-based
[13] = Drug concentration in Sprague-Dawley rat plasma at 1 mg/kg, po after 60 mins by LC/MS/MS analysis; assay type: ADME, organism-based
[14] = molecular target: T3, Melatonin receptor type 1B; assay: Binding affinity to human MT2 expressed in CHO cells; assay type: cell-based
[15] = Oral bioavailability in Sprague-Dawley rat at 1 mg/kg by LC/MS/MS analysis; assay type: ADME, organism-based; conditions: in vivo
[16] = Ratio of drug concentration in brain to plasma in Sprague-Dawley rat at 1 mg/kg, po after 60 mins by LC/MS/MS analysis; assay type: ADME, organism-based; conditions: read-out: BPR
[17] = Drug concentration in Sprague-Dawley rat brain at 1 mg/kg, po after 60 mins by LC/MS/MS analysis; assay type: ADME, organism-based; conditions: read-out: Ct
[18] = molecular target: T2, Melatonin receptor type 1A; assay: Binding affinity to human MT1 expressed in CHO cells; assay type: cell-based

SMILES	microsomal CLint at 1 µM [3]	Ki [4]	microsomal CLint at 1 µM [5]	Ki [6]	bioavailability [7]	also measured
CCOC(=O)c1c(C)nn2ccc3c(c12)C(CCNC(C)=O)CC3 (centres undefined)	–	–	–	–	–	inhibition [1]: < 50%; inhibition [2]: < 50%
CCC(=O)NCCC1CCc2ccn3nc(C)cc3c21 (centres undefined)	20 µL/min/mg	170 pM	84 µL/min/mg	950 pM	–	–
CC(=O)NCCC1CCc2ccc3nc(CO)oc3c21 (centres undefined)	–	1200 pM	–	1100 pM	–	–
CC(=O)NCCC1CCc2ccn3nc(C)c(C)c3c21 (centres undefined)	–	9300 pM	–	–	–	inhibition [1]: < 50%
CC(=O)NCCC1CCc2ccc3nc(C4CC4)oc3c21 (centres undefined)	–	390 pM	–	150 pM	–	–
CC(=O)NCCC1CCc2ccc3ncoc3c21 (centres undefined)	–	450 pM	–	73 pM	–	–
CCC(=O)NCCC1CCc2ccc3nc(C)oc3c21 (centres undefined)	29 µL/min/mg	67 pM	96 µL/min/mg	88 pM	6.8%	–
CCC(=O)NCCC1CCc2ccc3nn(C)cc3c21 (centres undefined)	23 µL/min/mg	300 pM	79 µL/min/mg	350 pM	13.7%	–
CC(=O)NCCC1CCc2ccc3nn(C)cc3c21 (centres undefined)	5 µL/min/mg	350 pM	44 µL/min/mg	750 pM	20.9%	–

Continued, in another order:

microsomal CLint at 1 µM [3]	Ki [4]	microsomal CLint at 1 µM [5]	Ki [6]	bioavailability [7]	SMILES	also measured
–	220 pM	–	160 pM	–	CCc1nc2ccc3c(c2o1)C(CCNC(C)=O)CC3 (centres undefined)	–
–	67 pM	34 µL/min/mg	130 pM	18.5%	CC(=O)NCCC1CCc2ccc3nc(C)oc3c21 (racemic)	–
–	31 pM	–	70 pM	–	CC(=O)NCC[C@@H]1CCc2ccc3nc(C)oc3c21	Kp at 1 h [8]: 0.48; concentration at 1 h [9]: 1.4 ng/g; Activity (Felis catus): Active; EC50 [10]: 510 pM; concentration at 1 h [11]: 2.9 ng/mL; EC50 [12]: 15 pM
–	1300 pM	–	230 pM	–	CC(=O)NCCC1CCc2ccc3nc(-c4ccccc4)oc3c21 (centres undefined)	–
45 µL/min/mg	37 pM	188 µL/min/mg	86 pM	4.8%	CC(=O)NCCC1CCc2ccc3nc(C)sc3c21 (centres undefined)	–
41 µL/min/mg	27 pM	379 µL/min/mg	58 pM	3.2%	CCC(=O)NCCC1CCc2ccc3nc(C)sc3c21 (centres undefined)	–
–	4400 pM	–	120 pM	–	CC(=O)NCCC1CCc2ccc3nc(Cc4ccccc4)oc3c21 (centres undefined)	–
14 µL/min/mg	200 pM	42 µL/min/mg	1400 pM	14.3%	CC(=O)NCCC1CCc2ccn3nc(C)cc3c21 (centres undefined)	–
–	23000 pM	–	6100 pM	–	CC(=O)NCC[C@H]1CCc2ccc3nc(C)oc3c21	–
51 µL/min/mg	–	126 µL/min/mg	–	–	CCC(=O)NCC[C@@H]1CCc2ccc3c(c21)CCO3 [RAMELTEON]	concentration at 1 h [13]: 15 ng/mL; Ki [14]: 112 pM; bioavailability [15]: 8.5%; Kp at 1 h [16]: 1.1; concentration at 1 h [17]: 17 ng/g; Ki [18]: 14 pM
–	450 pM	–	150 pM	–	COc1nc2ccc3c(c2o1)C(CCNC(C)=O)CC3 (centres undefined)	–
